The source of these data is patent US20100099088A1, “RELIABLE DETECTION OF VANCOMYCIN-INTERMEDIATE STAPHYLOCOCCUS AUREUS” (priority 2006, published 2010).

The test system of the assay is SAV2095 (SEQ ID NO.:1) expression in S. aureus. The assay can be described thus: SAV2095 homologue mRNA expression by qRT-PCR after growth in subinhibitory vancomycin. Type of assay: cell-based, Staphylococcus aureus. How it is done: Overnight cultures of strains were diluted 1/100 in tryptic soy broth containing either 0 (for all strains), 1 (for selected MRSA), or 3 (for selected VISA) mg/L vancomycin and grown to mid-log phase. Cells from 1 mL culture were harvested and treated with RNAProtect (Qiagen). Cells were subsequently treated with lysostaphin for 30 min at 37° C., and total RNA was isolated from each sample and each condition using the RNeasy Kit (Qiagen). Samples were then treated with Turbo DNA-free (Ambion, Austin, Tex.) to remove any contaminating genomic DNA. RNA quantity and quality was assessed using an Agilent Technologies 2100 bioanalyzer and RNA 6000 Nano LabChip kit (Agilent, Mountain View, Calif.). Complementary DNA (cDNA) was generated from 688 ng of total RNA using a random primer hexamer following the protocol for Superscript II (Invitrogen, Carlsbad, Calif.) in a 20 μL volume.
Equal amounts (34 ng) of cDNA were run in triplicate and amplified in a 15 μl reaction containing 7.5 μL of 2× Universal PCR Master Mix (Applied Biosystems, Foster City, Calif.), 10 nM of Z-tailed forward primer, 100 nM of reverse primer, 100 nM of Amplifluor Uniprimer probe (Chemicon, Temecula, Calif.), and 1 μL of DNA target. Moreover, no-template controls were used as recommended. The mixture was incubated at 50° C. for 2 min, at 95° C. for 4 min, and then cycled at 95° C. for 15 sec and at 55° C. for 40 sec 55 times using the Applied Biosystems Prism 7900 Sequence Detector. Amplification efficiencies were validated and normalized to expression of the 16S rRNA gene as a standard, and quantity of target and standard genes were calculated according to a standard curve. Primers were designed using Primer Express 2.0 (Applied Biosystems) and their sequence data are the following: for SAV2095, forward, 5-Ztail-[…]-3, reverse, 5-[…]-3; and for 16S rRNA, forward, 5-Ztail-[…]-3, reverse, 5-GCTTAAGGGTTGCGCTCGT-3. Amplicons were detected using the Amplifluor™ UniPrimerr™ system where forward primers used contained the 5′ Z sequence ACTGAACCTGACCGTACA. As it is appreciated by a person skilled in the art, it is to be understood herein that other primers may be used for amplifying and detecting SAV2095 without departing from the scope of the invention. A person skilled in the art knows how to design primers for any given amplification assay. For example, in a multiplex assay, primers would need to have similar melting temperatures and low complementarity, etc.

As for `CN[C@H](CC(C)C)C(=O)N[C@H]1C(=O)N[C@@H](CC(N)=O)C(=O)N[C@H]2C(=O)N[C@H]3C(=O)N[C@H](C(=O)N[C@H](C(=O)O)c4cc(O)cc(O)c4-c4cc3ccc4O)[C@H](O)c3ccc(c(Cl)c3)Oc3cc2cc(c3O[C@@H]2O[C@H](CO)[C@@H](O)[C@H](O)[C@H]2O[C@H]2C[C@](C)(N)[C@H](O)[C@H](C)O2)Oc2ccc(cc2Cl)[C@H]1O` [vancomycin], the “Effect on SAV2095 expression level” value reads like this: (MRSA strains grown with subinhibitory vancomycin 1 mg/L) “does not consistently increase”; (MRSA strains grown with subinhibitory vancomycin 1 mg/L, listed as Vn) “not in MRSA”; (VISA strains grown with subinhibitory vancomycin 3 mg/L, p<0.05) “consistently increased further”; (VISA strains grown with subinhibitory vancomycin 3 mg/L, p<0.05, listed as Vn) “increased expression of SAV2095”.
